Patent publication US7820636B2, “Sugar intake promoters” (Otsuka Pharmaceutical Co., Ltd., priority 2001, dated 2010)

Test system: human epidermal keratinocytes
Test: 3H-2-deoxyglucose uptake in epidermal keratinocytes
Assay type: cell-based
Conditions: for promotion effect relative to that of adenosine at the same concentration: p<0.05; for action of promoting epidermal keratinocytic glucose uptake (qualitative): FIG. 1
Protocol: The influence of purine base on glucose uptake in epidermal keratinocytes was examined using adenosine 5′-phosphate-2Na (AMP-2Na), adenosine and inosine as test compounds. As a control, the experiment was carried out in a similar manner without using the test compound.
Human epidermal keratinocyates (normal human neonatal foreskin epidermal keratinocytes, “Epidercell NHEK(F)”, product of Kurabo industries, Ltd.) were initially cultured in a 10-cm petri dish and stored in a frozen state until use. At the time of use, the cryopreserved cells were cultured on a 24-well plate for about 6 to 7 days and subjected to this experiment when the cells were 70-80% confluent.
A glucose-free medium was prepared by adding to a serum-free medium for the growth of epidermal keratinocytes (“HuMedia-KG2”, special ordered medium, product of Kurabo Industries, Ltd.) 1 ml of calcium solution and 0.1 ml of phenol red packaged with the medium product. Bovine serum albumin (BSA) treated with activated carbon to remove impurities was added to the medium to become a concentration of 1% and the medium was adjusted to pH 7.4 with NaOH.
1 ml of 10 mM 2-deoxyglucose, 60 μl of 250 μCi/250 μl ^3H-2-deoxyglucose and 940 μl of 1% BSA/glucose-free medium (pH 7.4) were mixed.
Epidermal keratinocytes cultured in a 24-well plate were washed with PBS(−) (Ca^2+ and Mg^2+ free phosphate buffered saline) three times. After addition of serum-free medium for the growth of epidermal keratinocytes (“HuMedia-KG2”, special ordered medium, product of Kurabo Industries, Ltd.), the cells were cultured for 2 hours and then washed with PBS(−) three times. After addition of 1 ml of 1% BSA/glucose-free medium (pH 7.4) in which the test compound was dissolved, the cells were cultured for 30 minutes and then 20 μl of ^3H-2-deoxyglucose solution was added per ml of the medium. The cells were allowed to stand for 10 minutes and then washed with ice-cooled glucose-containing PBS(−) three times. After addition of 0.5 ml of 0.1N NaOH containing 0.1% SDS, the cells ware allowed to stand in a static condition for at least 2 hours to produce a cell lysate solution. 0.5 ml of 0.11N HCl containing 0.1% SDS was added to acidify the cell lysis solution. 80 μl of the cell lysate solution was used for protein assay (“DC Protein Assay”, product of Bio-Rad), and 750 μl of the same was placed into a glass bottle. 20 ml of a liquid scintillation cocktail (ACS-II, product of Amersham) was added. After gently stirring the mixture, radioactivity was assayed using the liquid scintillation counter. The radioactivity per unit amount of protein was determined from the measured radioactivity and the amount of ^3H-2-deoxyglucose uptake (H-DPM (μg)/μg protein) was calculated by subtracting the radioactivity due to non-specific 3H-2-deoxyglucose uptake.
The above experiment was carried out twice and the mean averages were calculated. For comparison with the control, each value was converted to a ratio to the control value set as 1. […] In FIG. 1, the abscissa designates the concentration (log M) of each purine base (AMP-2Na, adenosine, inosine), and the ordinate designates the ratio of cellular 2-deoxyglucose uptake amount (H-DPM (μg)/μg protein) relative to the control set as 1.

| SMILES | promotion of glucose uptake relative to control (ratio, control = 1) (10^-5 M, first experiment) | promotion of glucose uptake relative to control (ratio, control = 1) (10^-5 M, second experiment) | promotion of glucose uptake relative to control (ratio, control = 1) (10^-6 M, first experiment) | promotion effect relative to that of adenosine at the same concentration (10^-6 M, first experiment) | promotion of glucose uptake relative to control (ratio, control = 1) (10^-6 M, second experiment) | promotion effect relative to that of adenosine at the same concentration (10^-6 M, second experiment) | glucose uptake promotion compared with inosine (qualitative) (low concentration (10^-7 M)) | action of promoting epidermal keratinocytic glucose uptake (qualitative) |
| --- | --- | --- | --- | --- | --- | --- | --- | --- |
| Nc1ncnc2c1ncn2[C@@H]1O[C@H](COP(=O)([O-])[O-])[C@@H](O)[C@H]1O.[Na+].[Na+] [AMP-2Na, adenosine 5′-phosphate-2Na] | about 1.61 times | about 1.43 times | about 1.48 times | about 1.16 times | about 1.48 times | about 1.32 times | promotes glucose uptake more effectively than inosine |  |
| Nc1ncnc2c1ncn2[C@@H]1O[C@H](CO)[C@@H](O)[C@H]1O [adenosine] |  |  |  |  |  |  |  | have the action of promoting epidermal keratinocytic glucose uptake |
| OC[C@H]1O[C@@H](n2cnc3c(O)ncnc32)[C@H](O)[C@@H]1O [inosine] |  |  |  |  |  |  |  | have the action of promoting epidermal keratinocytic glucose uptake |
